The source of these data is US20230270677A1, “LONG-ACTING THERAPEUTIC AGENT COMBINATIONS AND METHODS THEREOF” (University of Washington, priority 2020, published 2023).

The nature of data set [1]: Plasma pharmacokinetics after single subcutaneous dose in non-human primates (DcNP or free drug combination). The note with it: for half-life: monkey, sc. As for the experimental part: To evaluate whether presenting the three drugs—e.g., DTG-3TC-TFV, LPV-RTV-TFV, EFV-LPV-TFV, ATZ-RTV-TFV or 4 drugs—e.g., LPV-RTV-3TC-TFV in a combination nanosuspension using DcNP platform could provide long-acting plasma and intracellular drug exposure, macaques were subcutaneously administered with either DcNP formulated or soluble free drug combination. The free-drug combination (control) arm consisted of two groups. In the control group, 2-4 macaques were administered at an indicated single subcutaneous dose where equivalent dug combinations are dissolved in DMSO and diluted with water.
Whole blood in EDTA tubes was immediately centrifuged and plasma was removed and frozen at −80° C. until LC-MS/MS analysis.
Plasma drug concentrations were reported in units of nM. Non-compartmental parameters were estimated from plasma profiles for free and DcNP formulations using Phoenix WinNonlin (Certara, Princeton, N.J.). The following non-compartmental parameters were estimated: area under the plasma concentration-time curve (AUC) extrapolated to infinity; terminal half-life (t1/2); apparent clearance (CL/F); and mean body residence time (MBRT) based on moments extrapolated to infinity.

The conditions of data set [2]: cited from earlier work.
The next data set deals with HIV-1. The following applies: read-out: therapeutically effective plasma concentration (EC50); cited from earlier work.
For data set [3] the following is noted: cited from earlier work. This is another data set of the same source.
The conditions of data set [4]: cited from earlier work. The source holds these as a separate data set.

Like-named read-outs stand apart in the source and are kept apart here. Bounds are passed on as bounds.

As for “[(2˜{R})-1-(6-aminopurin-9-yl)propan-2-yl]oxymethylphosphonic acid [Tenofovir]”, the “DcNP formulation (non-human primates) (plasma half-life, hours)” value in data set [1] (DcNP formulation, non-human primates) was over 200 to 350 h. For the same compound, the “Oral single dose formulation (plasma half-life, hours)” value (shortened to “Oral single dose formulation”) in data set [2] (oral) is 8 to 17 h.
One may read the half-life as the time needed for the level to fall by half in the phase considered. For `Cc1cccc(C)c1OCC(=O)N[C@@H](Cc1ccccc1)[C@@H](O)C[C@H](Cc1ccccc1)NC(=O)[C@H](C(C)C)N1CCCNC1=O` [Lopinavir, (2S)—N-[(2S,4S,5S)-5-[[2-(2,6-dimethylphenoxy)acetyl]amino]-4-hydroxy-1,6-diphenylhexan-2-yl]-3-methyl-2-(2-oxo-1,3-diazinan-1-yl)butanamide], the half-life in data set [1] (in vivo) lay in the range of 250 to 350 h. Moreover, the EC50 in the data set with HIV-1 was 10 to 27 nM. The “Oral single dose formulation” value in data set [2] (in vivo, po) is 2.5 h.
By log P is commonly meant a log measure of how a compound divides between an organic and an aqueous phase. Regarding `O=C1Nc2ccc(Cl)cc2[C@@](C#CC2CC2)(C(F)(F)F)O1` [Efavirenz], the Water solubility in data set [3] is 0.00855 µg/mL. For the same compound, the “log P” value in data set [4] is given as 4.
Regarding `C[C@@H]1CCO[C@H]2Cn3cc(C(=O)NCc4ccc(F)cc4F)c(=O)c(O)c3C(=O)N12` [Dolutegravir], the half-life in data set [1] (plasma) is over 400 h. In data set [3], the Water solubility was under 95 µg/mL. For the same compound, in data set [4] (listed as DTG), the “log P” value was over 2. Also, the EC50 in the data set with HIV-1 was 0.02 to 2.14 nM. In addition, the “Oral single dose formulation” value in data set [2] (oral) is 23 h.
On to `Cc1cc(/C=C/C#N)cc(C)c1Nc1ccnc(Nc2ccc(C#N)cc2)n1` [Rilpivirine, 4-[[4-[4-[(E)-2-cyanoethenyl]-2,6-dimethylanilino]pyrimidin-2-yl]amino]benzonitrile], for which the “log P” value in data set [4] is 4.5. Besides, in the data set with HIV-1, the EC50 was 0.7 to 1.1 nM.
Regarding `C[C@H](Cn1cnc2c(N)ncnc21)OCP(=O)(O)O` [Tenofovir, [(2˜{R})-1-(6-aminopurin-9-yl)propan-2-yl]oxymethylphosphonic acid], the Water solubility in data set [3] was 13000 µg/mL. The “log P” value in data set [4] is reported as −1.6. Besides, the EC50 in the data set with HIV-1 is 40 to 8500 nM.
As to `CC(C)c1nc(CN(C)C(=O)N[C@H](C(=O)N[C@@H](Cc2ccccc2)C[C@H](O)[C@H](Cc2ccccc2)NC(=O)OCc2cncs2)C(C)C)cs1` [Ritonavir, 1,3-thiazol-5-ylmethyl N-[(2S,3S,5S)-3-hydroxy-5-[[(2S)-3-methyl-2-[[methyl-[(2-propan-2-yl-1,3-thiazol-4-yl)methyl]carbamoyl]amino]butanoyl]amino]-1,6-diphenylhexan-2-yl]carbamate], the half-life in data set [1] (plasma) was 250 to 350 h. In the data set with HIV-1, the EC50 is 3.8 to 153 nM. Further, the “Oral single dose formulation” value in data set [2] (oral) was 2.5 h.
